Data: the Kinase Knowledgebase extract (Sharma et al. 2016)

Target: MAPK14 (human) (UniProt Q16539)
Test: Inhibition of MAPK14 Kinase Activity

MAPK14 (human), sequence (Q16539 whole entry, looked up): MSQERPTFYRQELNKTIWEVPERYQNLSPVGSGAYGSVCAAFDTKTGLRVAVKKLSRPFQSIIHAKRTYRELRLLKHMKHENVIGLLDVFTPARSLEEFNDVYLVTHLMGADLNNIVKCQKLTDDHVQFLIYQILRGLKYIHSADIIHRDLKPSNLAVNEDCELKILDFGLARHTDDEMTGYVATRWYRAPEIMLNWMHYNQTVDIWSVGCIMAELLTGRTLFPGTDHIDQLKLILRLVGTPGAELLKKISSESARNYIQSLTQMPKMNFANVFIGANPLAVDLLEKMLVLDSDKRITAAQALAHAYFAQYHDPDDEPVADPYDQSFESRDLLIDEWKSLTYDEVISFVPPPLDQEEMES

IC50, < 2 µM:
CN1CC(Nc2sc3c(ccc(=O)n3CC3CC3)c2C(=O)c2ccccc2)C1
CN(C)C(=O)CNc1sc2c(ccc(=O)n2-c2ccccc2)c1C(=O)c1ccccc1
Nc1sc2c(ccc(=O)n2-c2c(F)cccc2F)c1C(=O)c1ccccc1
CCOC(=O)c1sc2c(ccc(=O)n2-c2ccccc2)c1C(=O)c1ccccc1
N#Cc1ccc(C(=O)c2c(N)sc3c2ccc(=O)n3-c2ccccc2)cc1
Cc1cc(C(=O)c2c(NC(=O)NC(C)(C)CO)sc3c2ccc(=O)n3CC2CC2)ccc1F
CN1CCC[C@@H]1C(=O)Nc1sc2c(ccc(=O)n2-c2ccccc2)c1C(=O)c1ccccc1
CN1CCC(Nc2sc3c(ccc(=O)n3-c3ccccc3)c2C(=O)c2ccc(F)c(Cl)c2)CC1
Cc1cccc(C(=O)c2c(NC(=O)N3CCC3)sc3c2ccc(=O)n3-c2ccccc2)c1
Nc1sc2c(ccc(=O)n2-c2cccnc2)c1C(=O)c1ccccc1
CN1CC[C@@H](Nc2sc3c(ccc(=O)n3-c3ccccc3)c2C(=O)c2ccccc2)C1
Cc1cccc(C(=O)c2c(C(N)=O)sc3c2ccc(=O)n3-c2ccccc2)c1
CN(C)CC(C)(C)CNc1sc2c(ccc(=O)n2-c2ccccc2)c1C(=O)c1ccccc1
Nc1sc2c(ccc(=O)n2-c2ccccc2)c1C(=O)c1ccccc1OC(F)(F)F
O=C(c1ccccc1)c1c(N[C@H]2CCNC2)sc2c1ccc(=O)n2-c1ccccc1
O=C(c1ccccc1)c1csc2c1ccc(=O)n2-c1ccccc1
CC(=O)Nc1sc2c(ccc(=O)n2-c2ccccc2)c1C(=O)c1cccs1
Cc1cc(C(=O)c2c(NC(=O)NC(C)(C)CO)sc3c2ccc(=O)n3-c2ccccc2Cl)ccc1F
CC(=O)Nc1sc2c(ccc(=O)n2-c2ccccc2)c1C(=O)c1ccc(C)cc1
Cc1cc(C(=O)c2c(NC3CCN(C)CC3)sc3c2ccc(=O)n3-c2ccccc2)ccc1F
NC1CN(c2sc3c(ccc(=O)n3-c3ccccc3)c2C(=O)c2ccccc2)C1
CCOC(=O)c1sc2c(ccc(=O)n2-c2ccccc2)c1C(=O)c1cccc(Cl)c1
Cc1ccc(-n2c(=O)ccc3c(C(=O)c4ccccc4)c(NC4CNC4)sc32)cc1
CC(=O)Nc1sc2c(ccc(=O)n2-c2ccccc2)c1C(=O)c1ccc(F)cc1
NC(=O)CNc1sc2c(ccc(=O)n2-c2ccccc2)c1C(=O)c1ccccc1
Cc1cccc(C(=O)c2c(C(=O)N3CCC3)sc3c2ccc(=O)n3-c2ccccc2)c1
CC(C)(CO)NC(=O)Nc1sc2c(ccc(=O)n2-c2ccccc2Cl)c1C(=O)c1ccccc1
Nc1sc2c(ccc(=O)n2-c2ccccc2)c1C(=O)c1ccc(F)cc1
Cc1cccc(C(=O)c2c(N[C@H]3CCNC3)sc3c2ccc(=O)n3-c2ccccc2)c1
Nc1sc2c(ccc(=O)n2-c2ccccc2)c1C(=O)c1ccccn1
Nc1sc2c(ccc(=O)n2-c2ccccc2)c1C(=O)c1ccccc1F
CN1CCC(Nc2sc3c(ccc(=O)n3-c3ccccc3)c2C(=O)c2ccccc2)CC1
Cc1cc(C(=O)c2c(C(N)=O)sc3c2ccc(=O)n3-c2ccccc2)ccc1F
NC(=O)c1sc2c(ccc(=O)n2-c2ccccc2)c1C(=O)c1ccc(F)cc1F
Cc1cccc(C(=O)c2c(N3CCC3)sc3c2ccc(=O)n3-c2ccccc2)c1
CCN1CCC(C(=O)Nc2sc3c(ccc(=O)n3-c3ccccc3)c2C(=O)c2ccccc2)CC1
Cc1ccc(-n2c(=O)ccc3c(C(=O)c4ccccc4)c(NC4CN(C)C4)sc32)cc1
Nc1sc2c(ccc(=O)n2-c2ccccc2)c1C(=O)c1cccc(OC(F)F)c1
Cc1ccc(C(=O)c2c(N)sc3c2ccc(=O)n3-c2ccccc2)cc1
O=C(c1ccccc1)c1c(N2CC[C@@H](O)C2)sc2c1ccc(=O)n2-c1ccccc1
C[C@@H](Nc1sc2c(ccc(=O)n2-c2ccccc2)c1C(=O)c1ccccc1)C(N)=O
O=C(c1ccccc1)c1c(NC(=O)[C@@H]2CCCN2)sc2c1ccc(=O)n2-c1ccccc1
Cc1cc(C(=O)c2c(NC3CCN(C(C)C)CC3)sc3c2ccc(=O)n3-c2ccccc2)ccc1F
Nc1sc2c(ccc(=O)n2-c2ccccc2)c1C(=O)c1ccc(F)cc1F
Cc1cc(C(=O)c2c(NC(=O)C3CCNCC3)sc3c2ccc(=O)n3-c2ccccc2)ccc1F
O=C(c1ccccc1)c1c(N[C@@H]2CCNC2)sc2c1ccc(=O)n2-c1ccccc1
N#Cc1sc2c(ccc(=O)n2-c2ccccc2)c1C(=O)c1ccccc1
CS(=O)(=O)Nc1sc2c(ccc(=O)n2-c2ccccc2)c1C(=O)c1ccccc1
CCN1CC[C@@H](NC(=O)Nc2sc3c(ccc(=O)n3-c3ccccc3)c2C(=O)c2ccc(F)c(C)c2)C1
Cc1cc(C(=O)c2c(NC(=O)N[C@@H]3CCNC3)sc3c2ccc(=O)n3-c2ccccc2)ccc1F
CC(C)N1CC(Nc2sc3c(ccc(=O)n3-c3ccccc3)c2C(=O)c2ccccc2)C1
Nc1sc2c(ccc(=O)n2-c2ccccc2Cl)c1C(=O)c1ccccc1
O=C(c1ccccc1)c1c(NC(=O)C2CCNCC2)sc2c1ccc(=O)n2-c1ccccc1Cl
CC(C)(O)CNC(=O)Nc1sc2c(ccc(=O)n2-c2ccccc2)c1C(=O)c1ccccc1
Cc1cc(C(=O)c2c(NC3CNC3)sc3c2ccc(=O)n3-c2ccccc2)ccc1F
COc1cccc(C(=O)c2c(N)sc3c2ccc(=O)n3-c2ccccc2)c1
Cc1ccc(C(=O)c2c(N)sc3c2ccc(=O)n3-c2ccccc2)cc1C
Cc1cc(C(=O)c2c(N[C@@H]3CCNC3)sc3c2ccc(=O)n3-c2ccccc2)ccc1F
O=C(c1ccccc1)c1c(NCCN2CCCC2)sc2c1ccc(=O)n2-c1ccccc1
Cc1cccc(C(=O)c2c(N)sc3c2ccc(=O)n3-c2ccccc2Cl)c1
Cc1ccc(-n2c(=O)ccc3c(C(=O)c4ccc(F)c(C)c4)c(NC4CN(C)C4)sc32)cc1
O=C(c1ccccc1)c1c([N+](=O)[O-])sc2c1ccc(=O)n2-c1ccccc1
CN1CCC[C@@H](Nc2sc3c(ccc(=O)n3-c3ccccc3)c2C(=O)c2ccccc2)C1
Cc1cc(C(=O)c2c(NC3CN(C)C3)sc3c2ccc(=O)n3CC2CC2)ccc1F
CC(=O)Nc1sc2c(ccc(=O)n2-c2ccccc2)c1C(=O)c1cccc(F)c1
CC(=O)Nc1sc2c(ccc(=O)n2-c2ccccc2F)c1C(=O)c1cccc(C)c1
CC(C)(CO)NC(=O)Nc1sc2c(ccc(=O)n2CC2CC2)c1C(=O)c1ccccc1
CNC(=O)c1sc2c(ccc(=O)n2-c2ccccc2)c1C(=O)c1ccccc1
